The source of these data is publication PMC6342617 (Cancer chemotherapy and pharmacology, 2018).

The test system of one series is hepatocellular carcinoma. The settings on record: patients with hepatocellular carcinoma; cited from earlier work.
The next series has as its system gastric cancer. The settings on record: patients with gastric cancer; cited from earlier work.
Series [1] deals with substrates of CYP1A, CYP2C9, CYP2C19, CYP3A4 or P-glycoprotein. The settings on record: cited from earlier work.
The conditions of series [2]: phase I dose escalation study; cited from earlier work.
Series [3] has as its system triple-negative breast cancer. Particulars: patients with triple-negative breast cancer; cited from earlier work.
Series [4] is described as follows: Tivantinib steady-state plasma pharmacokinetics. Format: in vivo, human.
The subject of the next series is germ cell tumors. The settings on record: patients with germ cell tumors; cited from earlier work.
The test system of another series is cytochrome P450 enzymes. The settings on record: ref Hycamtin® prescribing information; cited from earlier work.

Each structure is given as a SMILES string.

With `O=C1NC(=O)[C@@H](c2cn3c4c(cccc24)CCC3)[C@@H]1c1c[nH]c2ccccc12` [tivantinib], the “Responses, monotherapy” value with hepatocellular carcinoma, in the series on gastric cancer and in the series on germ cell tumors was “No responses were seen” throughout. Moreover, in series [1], the “Interaction with substrates of CYP1A, CYP2C9, CYP2C19, CYP3A4 or P-glycoprotein” value is given as “has not been shown to have a significant interaction”. Further, the “Maximum tolerated dose, single agent” value in series [2] is reported as “no maximum tolerated dose was identified”. Moreover, the “Response rate, monotherapy” value in series [3] is recorded as 5%. The “AUC0–8 hr” value in series [4] (Dose Level 1 (tivantinib 240 mg), n=1) is on record as 7,243 ng × hr/ml. Further, in series [4] (Dose Levels −1 and A1 (tivantinib 120 mg), n=11), the “Clsys (oral clearance), range of observed values” lay in the range of 2.4 to 44.5 L/h. The same molecule came in with an AUC(0-t) in series [4] (human, plasma, oral, AUC0–12 hr, median, All Dose Levels, n=12) of 10.5 µg·h/mL.
In the case of `CC[C@@]1(O)C(=O)OCc2c1cc1n(c2=O)Cc2cc3c(CN(C)C)c(O)ccc3nc2-1` [topotecan], the “Induction or inhibition of cytochrome P450 enzymes” value with cytochrome P450 enzymes is listed as “has not been shown to induce or inhibit cytochrome P450 enzymes”.

Usually AUC(0-t) stands for the area under the concentration-time curve up to a stated or last time point. A high value points to more exposure.
